# Assay results as given in patent US20220298141A1, “ENZYME INHIBITORS” (KALVISTA PHARMACEUTICALS LIMITED, priority 2019, published 2022).
# Biological target: T1, Human Factor XIIa (Homo sapiens, UniProt P00748)
# T1 construct: purchased Enzyme Research Laboratories
# T1 sequence (P00748 373-615 limits assumed): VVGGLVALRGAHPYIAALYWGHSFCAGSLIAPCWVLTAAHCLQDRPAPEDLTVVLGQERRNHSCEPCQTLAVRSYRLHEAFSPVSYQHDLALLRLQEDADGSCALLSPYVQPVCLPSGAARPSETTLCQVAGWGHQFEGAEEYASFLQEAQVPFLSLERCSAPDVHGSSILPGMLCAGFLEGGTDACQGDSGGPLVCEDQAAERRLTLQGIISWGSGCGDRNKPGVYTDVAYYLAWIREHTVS
# T1 sequence (P00748 20-372 partner limits assumed): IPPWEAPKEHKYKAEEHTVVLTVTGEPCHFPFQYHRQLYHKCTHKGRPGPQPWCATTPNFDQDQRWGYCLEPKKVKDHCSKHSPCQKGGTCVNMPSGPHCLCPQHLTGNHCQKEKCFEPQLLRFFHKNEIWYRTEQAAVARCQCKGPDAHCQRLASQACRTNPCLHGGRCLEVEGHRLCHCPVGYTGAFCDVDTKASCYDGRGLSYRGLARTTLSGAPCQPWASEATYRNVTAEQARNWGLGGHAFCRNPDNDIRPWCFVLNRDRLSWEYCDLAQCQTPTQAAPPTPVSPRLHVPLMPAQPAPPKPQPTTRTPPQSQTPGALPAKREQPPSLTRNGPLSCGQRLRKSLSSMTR
# Assay: Determination of Factor XIIa inhibitory activity in vitro (fluorogenic substrate H-DPro-Phe-Arg-AFC)
# Type: biochemical
# Conditions: Human Factor XIIa (Enzyme Research Laboratories), 25° C., read-out: Human FXIIa IC50
# Experimental: Determination of the % Inhibition for FXIIa
# Factor XIIa inhibitory activity in vitro was determined using standard published methods (see e.g. Shori et al., Biochem. Pharmacol., 1992, 43, 1209; Baeriswyl et al., ACS Chem. Biol., 2015, 10 (8) 1861; Bouckaert et al., European Journal of Medicinal Chemistry 110 (2016) 181). Human Factor XIIa (Enzyme Research Laboratories) was incubated at 25° C. with the fluorogenic substrate H-DPro-Phe-Arg-AFC and various concentrations of the test compound. Residual enzyme activity (initial rate of reaction) was determined by measuring the […] and the IC50 value for the test compound was determined.
structure (smiles),measurement,value
Nc1nccc2cc(CNC(=O)c3cc(Cl)cnc3NC3CCCC3)ccc12 [Example 1.01],IC50,10 to 40 µM
Nc1nccc2cc(CNC(=O)c3cc(Cl)cnc3NCc3ccccc3)ccc12 [Example 1.02],IC50,10 to 40 µM
Nc1nccc2cc(CNC(=O)c3cc(Cl)cnc3NCC3CCOCC3)ccc12 [Example 1.03],IC50,10 to 40 µM
Nc1nccc2cc(CNC(=O)c3cc(Cl)cnc3Nc3ccccc3)ccc12 [Example 1.04],IC50,10 to 40 µM
COc1ccc(CNc2ncc(Cl)cc2C(=O)NCc2ccc3c(N)nccc3c2)cc1 [Example 1.05],IC50,10 to 40 µM
CS(=O)(=O)c1cccc(CNc2ncc(Cl)cc2C(=O)NCc2ccc3c(N)nccc3c2)c1 [Example 1.06],IC50,3 to 10 µM
CN(C)c1cccc(CNc2ncc(Cl)cc2C(=O)NCc2ccc3c(N)nccc3c2)c1 [Example 1.07],IC50,10 to 40 µM
COCCNc1ncc(Cl)cc1C(=O)NCc1ccc2c(N)nccc2c1 [Example 1.08],IC50,3 to 10 µM
CN(C)CCNc1ncc(Cl)cc1C(=O)NCc1ccc2c(N)nccc2c1 [Example 1.09],IC50,1 to 3 µM
Nc1nccc2cc(CNC(=O)c3cc(Cl)cnc3NCCN3CCCCC3)ccc12 [Example 1.10],IC50,1 to 3 µM
Nc1nccc2cc(CNC(=O)c3cc(Cl)cnc3NCCN3CCOCC3)ccc12 [Example 1.11],IC50,3 to 10 µM
CN1CCN(CCNc2ncc(Cl)cc2C(=O)NCc2ccc3c(N)nccc3c2)CC1 [Example 1.12],IC50,1 to 3 µM
"CN1CCC(CNc2ncc(Cl)cc2C(=O)NCc2ccc3c(N)nccc3c2)CC1 [Example 1.13, N-[(1-Amino-6-isoquinolyl)methyl]-5-chloro-2-[(1-methyl-4-piperidyl)methylamino]pyridine-3-carboxamide]",IC50,0.3 to 1 µM
Nc1nccc2cc(CNC(=O)c3cc(Cl)cnc3NCCOc3ccccc3)ccc12 [Example 1.14],IC50,3 to 10 µM
Nc1nccc2cc(CNC(=O)c3cc(Cl)cnc3NCCCOc3ccccc3)ccc12 [Example 1.15],IC50,10 to 40 µM
Nc1nccc2cc(CNC(=O)c3cc(Cl)cnc3NCCn3ccnc3)ccc12 [Example 1.16],IC50,3 to 10 µM
Nc1nccc2cc(CNC(=O)c3cc(Cl)cnc3NCCN3CCS(=O)(=O)CC3)ccc12 [Example 1.17],IC50,3 to 10 µM
CC(C)CCNc1ncc(Cl)cc1C(=O)NCc1ccc2c(N)nccc2c1 [Example 1.18],IC50,10 to 40 µM
CC(=O)NCCNc1ncc(Cl)cc1C(=O)NCc1ccc2c(N)nccc2c1 [Example 1.19],IC50,3 to 10 µM
CC(=O)NCCCNc1ncc(Cl)cc1C(=O)NCc1ccc2c(N)nccc2c1 [Example 1.20],IC50,3 to 10 µM
Nc1nccc2cc(CNC(=O)c3cc(Cl)cnc3NCc3ccc4c(c3)OCO4)ccc12 [Example 1.21],IC50,10 to 40 µM
CN1CCCc2cc(CNc3ncc(Cl)cc3C(=O)NCc3ccc4c(N)nccc4c3)ccc21 [Example 1.22],IC50,3 to 10 µM
Nc1nccc2cc(CNC(=O)c3cc(Cl)cnc3NCc3ccncc3)ccc12 [Example 1.23],IC50,3 to 10 µM
Nc1nccc2cc(CNC(=O)c3cc(Cl)cnc3NCc3cccnc3)ccc12 [Example 1.24],IC50,3 to 10 µM
CC(C)N(CCNc1ncc(Cl)cc1C(=O)NCc1ccc2c(N)nccc2c1)C(C)C [Example 1.25],IC50,0.3 to 1 µM
CC(C)N1CCN(CCCNc2ncc(Cl)cc2C(=O)NCc2ccc3c(N)nccc3c2)CC1 [Example 1.26],IC50,1 to 3 µM
Nc1nccc2cc(CNC(=O)c3cc(Cl)cnc3NCc3cccc(N4CCCCC4)c3)ccc12 [Example 1.27],IC50,10 to 40 µM
Nc1nccc2cc(CNC(=O)c3cc(Cl)cnc3NCC3CCN(c4ccncc4)CC3)ccc12 [Example 1.28],IC50,0.3 to 1 µM
Nc1nccc2cc(CNC(=O)c3cc(Cl)cnc3NCCN3CCCC3=O)ccc12 [Example 1.29],IC50,3 to 10 µM
CN1CCN(c2ccccc2CNc2ncc(Cl)cc2C(=O)NCc2ccc3c(N)nccc3c2)CC1 [Example 1.30],IC50,3 to 10 µM
Nc1nccc2cc(CNC(=O)c3cc(Cl)cnc3NCC3CCN(Cc4ccccc4)CC3)ccc12 [Example 1.31],IC50,1 to 3 µM
Nc1nccc2cc(CNC(=O)c3cc(Cl)cnc3NCc3ccc(N4CCCCC4=O)cc3)ccc12 [Example 1.32],IC50,10 to 40 µM
Nc1nccc2cc(CNC(=O)c3cc(Cl)cnc3NCc3cccc(N4CCCC4=O)c3)ccc12 [Example 1.33],IC50,10 to 40 µM
Nc1nccc2cc(CNC(=O)c3cc(Cl)cnc3NCc3ccc(CN4CCCC4=O)cc3)ccc12 [Example 1.34],IC50,10 to 40 µM
CN1CCC(N(C)c2ncc(Cl)cc2C(=O)NCc2ccc3c(N)nccc3c2)CC1 [Example 1.35],IC50,10 to 40 µM
CN1CCN(CCCNc2ncc(Cl)cc2C(=O)NCc2ccc3c(N)nccc3c2)CC1 [Example 1.36],IC50,1 to 3 µM
COc1ccc(Nc2ncc(Cl)cc2C(=O)NCc2ccc3c(N)nccc3c2)cc1 [Example 1.37],IC50,10 to 40 µM
COc1ccccc1Nc1ncc(Cl)cc1C(=O)NCc1ccc2c(N)nccc2c1 [Example 1.38],IC50,10 to 40 µM
CN(C)c1ccc(Nc2ncc(Cl)cc2C(=O)NCc2ccc3c(N)nccc3c2)cc1 [Example 1.39],IC50,10 to 40 µM
CN(C)c1cccc(Nc2ncc(Cl)cc2C(=O)NCc2ccc3c(N)nccc3c2)c1 [Example 1.40],IC50,10 to 40 µM
CN(C)c1ccccc1Nc1ncc(Cl)cc1C(=O)NCc1ccc2c(N)nccc2c1 [Example 1.41],IC50,10 to 40 µM
CS(=O)(=O)Nc1cccc(Nc2ncc(Cl)cc2C(=O)NCc2ccc3c(N)nccc3c2)c1 [Example 1.42],IC50,10 to 40 µM
CN1CCC(CNc2cccc(C(=O)NCc3ccc4c(N)nccc4c3)n2)CC1 [Example 4.26],IC50,1 to 3 µM
CN1CCCN(c2ncc(C(=O)NCc3ccc4c(N)nccc4c3)cc2Cl)CC1 [Example 8.01],IC50,10 to 40 µM
COc1ccc(CN(C)c2ncc(C(=O)NCc3ccc4c(N)nccc4c3)cc2Cl)cc1 [Example 8.02],IC50,10 to 40 µM
CC(C)N1CCN(c2ncc(C(=O)NCc3ccc4c(N)nccc4c3)cc2Cl)CC1 [Example 8.03],IC50,10 to 40 µM
Nc1nccc2cc(CNC(=O)c3cnc(N4CC(O)C4)c(Cl)c3)ccc12 [Example 8.04],IC50,10 to 40 µM
CN(C)CCCOc1cccc(CN(C)c2ncc(C(=O)NCc3ccc4c(N)nccc4c3)cc2Cl)c1 [Example 8.05],IC50,10 to 40 µM
"CN1CCC(N(C)c2ncc(C(=O)NCc3ccc4c(N)nccc4c3)cc2Cl)CC1 [Example 8.06, N-((1-aminoisoquinolin-6-yl)methyl)-5-chloro-6-(methyl(1-methylpiperidin-4-yl)amino)nicotinamide]",IC50,1 to 3 µM
CN(c1ncc(C(=O)NCc2ccc3c(N)nccc3c2)cc1Cl)C1CCOCC1 [Example 8.07],IC50,3 to 10 µM
"Nc1nccc2cc(CNC(=O)c3cnc(NC4CCCC4)c(Cl)c3)ccc12 [Example 11.01, N-((1-aminoisoquinolin-6-yl)methyl)-5-chloro-6-(cyclopentylamino)nicotinamide]",IC50,10 to 40 µM
CN(C)c1ccc(CNc2ncc(C(=O)NCc3ccc4c(N)nccc4c3)cc2Cl)cc1 [Example 11.02],IC50,3 to 10 µM
Nc1nccc2cc(CNC(=O)c3cnc(NCC4CCOCC4)c(Cl)c3)ccc12 [Example 11.03],IC50,3 to 10 µM
Nc1nccc2cc(CNC(=O)c3cnc(Nc4ccccc4)c(Cl)c3)ccc12 [Example 11.04],IC50,10 to 40 µM
CN(C)CCCNc1ncc(Cl)cc1C(=O)NCc1ccc2c(N)nccc2c1 [Example 11.05],IC50,1 to 3 µM
CN(C)CCOc1ccc(CNc2ncc(Cl)cc2C(=O)NCc2ccc3c(N)nccc3c2)cc1 [Example 11.06],IC50,3 to 10 µM
CN(C)CCCOc1cccc(CNc2ncc(Cl)cc2C(=O)NCc2ccc3c(N)nccc3c2)c1 [Example 11.07],IC50,1 to 3 µM
CN1CCN(c2ccccc2CNc2ncc(C(=O)NCc3ccc4c(N)nccc4c3)cc2Cl)CC1 [Example 11.08],IC50,10 to 40 µM
Nc1nccc2cc(CNC(=O)c3cnc(NCC4CCN(Cc5ccccc5)CC4)c(Cl)c3)ccc12 [Example 11.10],IC50,3 to 10 µM
COc1ccc(CNc2ncc(C(=O)NCc3ccc4c(N)nccc4c3)cc2Cl)cc1 [Example 11.11],IC50,10 to 40 µM
CS(=O)(=O)c1cccc(CNc2ncc(C(=O)NCc3ccc4c(N)nccc4c3)cc2Cl)c1 [Example 11.12],IC50,3 to 10 µM
Nc1nccc2cc(CNC(=O)c3cnc(NC4CCOCC4)c(Cl)c3)ccc12 [Example 11.13],IC50,10 to 40 µM
Nc1nccc2cc(CNC(=O)c3cnc(NCCN4CCCCC4)c(Cl)c3)ccc12 [Example 11.14],IC50,3 to 10 µM
CN1CCN(CCNc2ncc(C(=O)NCc3ccc4c(N)nccc4c3)cc2Cl)CC1 [Example 11.15],IC50,10 to 40 µM
CN1CCC(CNc2ncc(C(=O)NCc3ccc4c(N)nccc4c3)cc2Cl)CC1 [Example 11.16],IC50,3 to 10 µM
Nc1nccc2cc(CNC(=O)c3cnc(NCCn4ccnc4)c(Cl)c3)ccc12 [Example 11.17],IC50,10 to 40 µM
Nc1nccc2cc(CNC(=O)c3cnc(NCc4ccccn4)c(Cl)c3)ccc12 [Example 11.18],IC50,10 to 40 µM
Nc1nccc2cc(CNC(=O)c3cnc(NCc4cccnc4)c(Cl)c3)ccc12 [Example 11.19],IC50,10 to 40 µM
